Laboratory results from PubChem BioAssay (NCI).
Where “and” joins values, the source holds several entries; their conditions need not be identical. Identical values can stand only once.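 Growth conditions: 96-well plates. Treatment: test compound, 48 hours, 5 concentrations. Analysis: linear interpolation between bracketing concentrations; unreached endpoints set to highest concentration. At the GI50, growth is halved. TGI: concentration producing complete growth inhibition.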

Key:
Experiment in all cases: NCI anticancer screen, dose series, 48 h
[1] = tested on: NCI-H522 lung
[2] = tested on: BT-549 breast
[3] = tested on: CAKI-1 renal
[4] = tested on: SR leukemia
[5] = tested on: RPMI-8226 leukemia
[6] = tested on: 786-0 renal
[7] = tested on: SN12C renal
[8] = tested on: KM12 colon
[9] = tested on: OVCAR-3 ovarian
[10] = tested on: NCI-H226 lung

Row | Structure (SMILES) | GI50 [1] | TGI [1] | GI50 [2] | TGI [2] | GI50 [3] | TGI [3] | GI50 [4] | TGI [4] | GI50 [5] | TGI [5] | GI50 [6] | TGI [6] | GI50 [7] | TGI [7] | GI50 [8] | TGI [8] | GI50 [9] | TGI [9] | GI50 [10] | TGI [10]
1 | Oc1ccccc1C=Nc1nc(OCc2ccccc2)nc2[nH]ncc12 | 26.3 µM | > 100 µM | 33.7 µM | 86.7 µM | 14.2 µM | 50.5 µM | 13.1 µM | 39.5 µM | 14.4 µM | 43.5 µM | 34.8 µM | > 100 µM | 17.2 µM | 40.7 µM | 20.4 µM | 47.1 µM | 17.8 µM | 49.1 µM | 16.5 µM | 40.6 µM
2 | CNCc1cccc2c1OCCOCCOCCC(C)S(=O)(=O)c1ccc(cc1)-c1cnc(N)c(n1)C(=O)N2 (stereo not drawn) | 1.23 µM | 3.25 µM | 1.53 µM | 5.23 µM | 0.365 µM | 2.22 µM | 0.0861 µM | 4.71 µM | 2.05 µM | 5.12 µM | 0.516 µM | 2.06 µM | 1.24 µM | 3.14 µM | 1.69 µM | 6.78 µM | 1.16 µM | 2.59 µM | 1.98 µM | 5.46 µM
3 | C#Cc1cccc(NC(=O)C2CCCN(C(=O)CCl)C2)c1 (stereo not drawn) | 14.7 µM | 32.7 µM | 38.6 µM | > 82.5 µM | > 82.5 µM | > 82.5 µM | 24.2 µM | > 82.5 µM | > 82.5 µM | > 82.5 µM | > 82.5 µM | > 82.5 µM | 19.7 µM | > 82.5 µM | > 82.5 µM | > 82.5 µM | > 82.5 µM | > 82.5 µM | > 82.5 µM | > 82.5 µM
4 | COC(=O)C(=O)C(C(=O)C(=O)Nc1ccc(C)c(C)c1)c1nc2ccc([N+](=O)[O-])cc2[nH]c1=O (stereo not drawn) |  | > 100 µM |  | > 100 µM |  | > 100 µM |  | > 100 µM |  | > 100 µM |  | > 100 µM |  | > 100 µM |  | > 100 µM |  | > 100 µM |  | > 100 µM
5 | NC(N)=N/N=C(/c1ccccc1)c1ccccc1F | 3.12 µM | 14.7 µM | 5.11 µM | 23.6 µM | 4.26 µM | 31.4 µM | 0.809 µM | > 100 µM | 7.6 µM | > 82.1 µM | 4.58 µM | 21 µM | 5.98 µM | 31.3 µM | 1.14 µM | 12.9 µM | 2.1 µM | 7.55 µM | 5.35 µM | 22 µM
6 | COc1cc(N(CCC#N)CCC#N)ccc1/C(N=Nc1ccc(C(=O)O)cc1)=N/NC(=O)c1cc(Br)ccc1O | 110 µg/mL | > 150 µg/mL | > 150 µg/mL | > 150 µg/mL | 130 µg/mL | > 150 µg/mL | 85.4 µg/mL | > 150 µg/mL | 127 µg/mL | > 150 µg/mL | 97.8 µg/mL | > 150 µg/mL | 102 µg/mL | > 150 µg/mL | 50.3 µg/mL | > 150 µg/mL | 65 µg/mL | > 150 µg/mL | 53.2 µg/mL | > 150 µg/mL
7 | Fc1ccc(-c2nn3c(COc4ccc(Cl)cc4)nnc3s2)cc1Oc1ccccc1 | 26.1 µM | > 66.8 µM | 24.8 µM | 55.3 µM | 34.9 µM | > 100 µM | > 100 µM | > 100 µM | 13.9 µM | 29 µM | 14.2 µM | 30 µM | > 46.1 µM | > 67 µM | 40.8 µM | > 100 µM | 14.1 µM | 37.8 µM | 28.7 µM | 84.4 µM
8 | OCCCCC#Cc1ccccc1C#Cc1ccc(C(F)(F)F)cc1 | 16.4 µM | 32 µM | 18 µM | 35.1 µM | 18.6 µM | 33.8 µM | 0.693 µM | 31.8 µM | 19.9 µM | 48.8 µM | 4.72 µM | 18.1 µM | 15.8 µM | 29.6 µM | 13.9 µM | 29.8 µM | 17.8 µM | 32.6 µM | 18.7 µM | 34.1 µM
9 | Cc1nc2c(Br)cc(Br)cc2c(=O)n1-c1ccccc1NC1OCC(O)C(O)C1O (stereo not drawn) |  | 92.4 µM and 47.1 µM |  | > 100 µM |  | > 100 µM | 13.2 µM and 6 µM | 41 µM and 13.6 µM | 28.5 µM and 9.26 µM | > 100 µM and 41.7 µM | 45.1 µM and 13.6 µM | > 100 µM and 32.6 µM | 46.8 µM and 21.9 µM | > 100 µM |  | 67 µM |  | 69.3 µM and 60.9 µM | 42.3 µM and 16.2 µM | > 100 µM and 48.9 µM
10 | Nc1ncc(C2[C@H](CNC(=O)c3cc(Br)c[nH]3)C(CNC(=O)c3cc(Br)c[nH]3)[C@@H]2c2cnc(N)[nH]2)[nH]1 (stereo partly drawn) | > 50 µM | > 50 µM | 6.71 µM | > 50 µM | > 50 µM | > 50 µM | 25.1 µM | > 50 µM | > 50 µM | > 50 µM | > 50 µM | > 50 µM | 21.4 µM | > 50 µM | > 50 µM | > 50 µM | > 50 µM | > 50 µM | > 50 µM | > 50 µM
11 | N/C(=N\C(N)=N\c1nc2ccccc2s1)c1cnccn1 | 2.16 µM | 6.16 µM | 3.97 µM | 96 µM | 2.14 µM | 5.06 µM | 4.32 µM | > 100 µM | 3.2 µM | > 100 µM | 2.97 µM | > 100 µM | 4.18 µM | > 100 µM | 3.37 µM | > 100 µM | 2.79 µM | 7.86 µM | 2.45 µM | 6.34 µM
12 | O=NN(CCCl)C(=O)NC1CCCCC1 | 12.5 µM and 42.5 µM | 26.1 µM and 75.4 µM and 83.2 µM |  | 81.7 µM | 22.9 µM and 30.5 µM and 60.5 µM | 41.7 µM and 101 µM and 142 µM | 9.14 µM |  | 27.1 µM | 40.8 µM and 122 µM and 73.9 µM | 32 µM | 33.9 µM and 65.9 µM and 68.6 µM | 20.9 µM and 92.8 µM | 47.8 µM and 123 µM and 214 µM | 17.5 µM and 82.1 µM | 47.4 µM and 158 µM and 200 µM | 13.5 µM | 34.5 µM and 142 µM | 25.2 µM | 68.2 µM and 150 µM and 180 µM
13 | COc1ccc(OCC(O)CN2CCN(c3ccc(Cl)cc3)CC2)cc1 (stereo not drawn) | 69.3 µM | > 100 µM | > 100 µM | > 100 µM | 8.86 µM | > 100 µM | > 100 µM | > 100 µM | > 100 µM | > 100 µM | > 100 µM | > 100 µM | > 100 µM | > 100 µM | > 100 µM | > 100 µM | > 100 µM | > 100 µM | 37.9 µM | > 100 µM
